Two substances from patent publication US6410515B1, “Peptide, a method for its preparation and a pharmaceutical composition containing the peptide” (Immunotech Developments Inc., priority 1995, dated 2002) can be followed below.

Test [1] has as its system hemopoietic progenitor cells (CFU-S). Description: CFU-S content in bone marrow of mice irradiated with 4 Gy. The class given is in vivo. The following applies: day 8, control 401 ± 48. As for the experimental part: The effect of H-A-D-Trp-Y, where A is D-Glu or D-iGlu and Y is OH or a substituted amide, on protection and reconstitution of the population of hemopoietic progenitor cells in cytopenias of different origin was studied.
Ionising radiation was used to deplete bone marrow. Donor mice were irradiated at a dose of 4 Gy. For each of the two peptides, 10 μg/kg was injected intraperitoneally 1 hour, 1 day or 2 days before the irradiation (groups of 12 mice each). Bone marrow was taken from femoral bones 8 days after the irradiation. Eight days generally marks the beginning of an exponential reconstitution of both the total number of cells and the population of hemopoietic progenitors in the bone marrow, which were depleted as a result of irradiation.
On the 8th day a sharp statistically significant increase was recorded in the hemopoietic progenitor cells count in the bone marrow of the mice irradiated in the dose of 4 Gy who had received the peptide 2 days before the irradiation.

Test [2] concerns caryocytes in femoral marrow. Description: Reconstitution of caryocyte numbers in femoral marrow after 4 Gy. The class given is in vivo, mice. The method, then: The reconstitution of caryocyte numbers and that of hemopoietic progenitors was studied in femoral marrow after irradiation in the dose of 4 Gy and the peptide injection. The test was performed in 12 groups of mice, 6 animals each, and lasted 14 days. Intraperitoneal injections of the peptide in a dose of 10 μg/kg were made 1 day and 2 days before the irradiation.

For test [3], the system named is mixed lymphocyte culture (MLC). Put plainly: Mixed lymphocyte culture (MLC) proliferation. The class given is cell-based, mice. The conditions noted are these: FIG. 1. The method, then:
The influence of the peptides of the invention on the proliferation of a mixed lymphocyte culture (MLC) was studied. The MLC experimental system is an in vitro analogue of the GVHD reaction.
Donor spleen cells from C57B1 mice ([…]) were injected into recipient (CBA×C57B1) F1 mice. Bone marrow was removed from the recipient and cultured for 4 days. The cultured cells were separated into 3 test groups, one group was treated with iDD, one with the L-peptide H-Ile-Glu-Trp-OH and one was a control. Each test peptide was added in various concentrations. Each determination was done in triplicate. ^3H-thymidine was added to each culture for 16 hours and the index of the proliferation of the cells was calculated.

For H-D-Glu-D-Trp-OH, the “CFU-S count per femur” value in test [1] (10 μg/kg IP 1 hour before 4 Gy) was 450 ± 95; in test [1] (10 μg/kg IP 1 day before 4 Gy) it was 780 ± 92; in test [1] (10 μg/kg IP 2 days before 4 Gy), 955 ± 93. The Caryocyte count in test [2] (10 μg/kg IP 1 day before 4 Gy, 4 days after irradiation, 4 Gy alone 9,0 ± 0,3) was 8,0 ± 0,7 × 10^6; in test [2] (10 μg/kg IP 1 day before 4 Gy, 7 days after irradiation, 4 Gy alone 10,6 ± 0,8), 16,4 ± 0,7 × 10^6; in test [2] (10 μg/kg IP 1 day before 4 Gy, 11 days after irradiation, 4 Gy alone 17,0 ± 0,6), 16,0 ± 1,3 × 10^6; in test [2] (10 μg/kg IP 1 day before 4 Gy, 14 days after irradiation, 4 Gy alone 17,0 ± 1,2), 15,0 ± 0,6 × 10^6; in test [2] (10 μg/kg IP 2 days before 4 Gy, 4 days after irradiation, 4 Gy alone 9,0 ± 0,3), 8,5 ± 0,5 × 10^6; in test [2] (10 μg/kg IP 2 days before 4 Gy, 7 days after irradiation, 4 Gy alone 10,6 ± 0,8), 20,0 ± 0,7 × 10^6. The Caryocyte count in test [2] (10 μg/kg IP 2 days before 4 Gy, 11 days after irradiation, 4 Gy alone 17,0 ± 0,6) is 23,0 ± 1,9 × 10^6; in test [2] (10 μg/kg IP 2 days before 4 Gy, 14 days after irradiation, 4 Gy alone 17,0 ± 1,2) it was 24,5 ± 0,9 × 10^6.

H-Ile-Glu-Trp-OH [reference compound]: the “Effect on proliferation of the allogenic lymphocytes (MLC)” value in test [3] (0.1 μg/ml) is recorded as “negligible inhibition”; in test [3] (concentrations 1, 10, 20 μg/ml), “stimulates the proliferation”.
